Experimental data reported in US7756643B2, “Method for determining the biological effect and/or activity of at least one drug, chemical substances and/or pharmaceutical composition based on their effect on the methylation status of DNA” (Epigenomics AG, priority 2001, dated 2010).
Where no end group is shown, it is not given here.

Experiments:
[1] = tested on: CpGs of the Fas-L gene; assay: Peptide library screening: methylation status of CpGs in a T-cell line; type: cell-based; settings: 10 days, versus untreated control
Procedure: A peptide library was prepared in a 96-well culture plate which contained overlapping peptide fragments derived from the peptide sequence of human serum albumine (HSA). As positive controls, each of vasoactive intestinal peptide (VIP) and pituitary adenylate cyclase-activating polypeptide (PACAP) was added in one of the wells.
A T-cell line (example?) was incubated together with the peptides and VIP or PACAP. After 10 days, the cells of the VIP/PACAP and HSA peptide treated as well as untreated control cell line cultures were collected by centrifugation and the chromosomal DNA was prepared using QIAamp DNA Mini Kit as recommended by the manufacturer (Quiagen, Hilden, Germany).
Subsequently, the chromosomal DNAs were bisulphite treated as published, for example, according to Olek et al. 6 different multiplex PCR reactions were performed on the 3 bisulphite DNA samples (untreated control, HSA and VIP/PACAP treated samples) using Cy5-labelled primer. The products of the methylation specific PCR reactions performed on the same DNA samples were combined. These complex mixtures of 64 PCR products derived from the three DNA samples were comparatively hybridised onto oligo micro arrays representing 256 CpG and the methylation statuses of the CpGs were analysed according to a method described in WO 99/28498.

[2] = tested on: T cells; settings: through down-regulation of Fas ligand (FasL); cited from earlier work

| Substance | methylation status of CpGs of the Fas-L gene [1] | protection of T cells from activation-induced cell death [2] |
| --- | --- | --- |
| pituitary adenylate cyclase-activating polypeptide (HSDGIFTDSYSRYRKQMAVKKYLAAVLGKRYKQRVKNK; ends and bridges not checked; UniProt P18509 132-169, looked up) [PACAP, positive control peptide] | significantly changed | protect T cells from activation-induced cell death |
| vasoactive intestinal peptide (HSDAVFTDNYTRLRKQMAVKKYLNSILN; ends and bridges not checked; UniProt P01282 125-152, looked up) [VIP, positive control peptide] | significantly changed | protect T cells from activation-induced cell death |
